pIC50, pKi: −log10 of the molar value.
Assays:
Carbonic anhydrase 2 [1] = biological target: T1, Carbonic anhydrase 2 (Homo sapiens, UniProt P00918)
Description: Binding affinity to human carbonic anhydrase 2 assessed as inhibition constant incubated for 15 mins by phenol red based stopped-flow CO2 hydration assay

Carbonic anhydrase 12 = Carbonic anhydrase 12 (Homo sapiens, UniProt O43570)
Description: Binding affinity to human carbonic anhydrase 12 assessed as inhibition constant incubated for 15 mins by phenol red based stopped-flow CO2 hydration assay

Carbonic anhydrase 2 [2] = biological target: T1, Carbonic anhydrase 2; remark: listed apart in the source
Description: Binding affinity to human recombinant carbonic anhydrase 2 assessed as inhibition constant incubated for 15 mins by phenol red based stopped-flow CO2 hydration assay

Carbonic anhydrase 9 = Carbonic anhydrase 9 (Homo sapiens, UniProt Q16790)
Description: Binding affinity to human carbonic anhydrase 9 assessed as inhibition constant incubated for 15 mins by phenol red based stopped-flow CO2 hydration assay

Carbonic anhydrase 1 = Carbonic anhydrase 1 (Homo sapiens, UniProt P00915)
Description: Binding affinity to human carbonic anhydrase 1 assessed as inhibition constant incubated for 15 mins by phenol red based stopped-flow CO2 hydration assay

MCF7 [3] = experiment: Antiproliferative activity against human MCF7 cells assessed as inhibition of cell growth under normoxia condition by MTT colorimetric assay
MCF7 [4] = experiment: Antiproliferative activity against human MCF7 cells assessed as inhibition of cell growth under hypoxia condition by MTT colorimetric assay

Sequence of Carbonic anhydrase 12 (O43570 whole entry): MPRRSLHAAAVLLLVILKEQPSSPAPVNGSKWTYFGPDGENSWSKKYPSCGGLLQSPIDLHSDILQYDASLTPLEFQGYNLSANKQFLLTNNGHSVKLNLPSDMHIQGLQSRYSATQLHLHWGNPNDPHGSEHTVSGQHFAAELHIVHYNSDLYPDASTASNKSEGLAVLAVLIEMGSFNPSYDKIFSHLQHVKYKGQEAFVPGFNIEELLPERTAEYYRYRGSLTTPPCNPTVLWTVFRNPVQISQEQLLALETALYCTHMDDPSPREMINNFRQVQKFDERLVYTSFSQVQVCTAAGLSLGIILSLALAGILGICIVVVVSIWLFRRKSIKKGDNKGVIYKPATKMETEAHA
Sequence of Carbonic anhydrase 1 (P00915 whole entry): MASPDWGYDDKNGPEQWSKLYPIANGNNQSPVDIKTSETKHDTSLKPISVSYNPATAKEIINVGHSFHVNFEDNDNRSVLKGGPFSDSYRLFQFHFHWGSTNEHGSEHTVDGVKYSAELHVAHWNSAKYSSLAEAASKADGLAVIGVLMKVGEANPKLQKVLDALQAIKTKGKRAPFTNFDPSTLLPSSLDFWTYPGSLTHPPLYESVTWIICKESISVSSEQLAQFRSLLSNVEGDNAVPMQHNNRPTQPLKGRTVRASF

| pKi (Carbonic anhydrase 2 [1]) | pKi (Carbonic anhydrase 12) | SMILES | other results |
| --- | --- | --- | --- |
| 7.52 | 7.44 | CCN1C(=O)/C(=C\c2ccc(Cl)cc2)S/C1=N/c1ccc(S(N)(=O)=O)cc1 |  |
|  | 7.31 | CN1C(=O)/C(=C\c2ccc(Cl)cc2)S/C1=N/c1ccc(S(N)(=O)=O)cc1 |  |
| 7.35 | 7.13 | CN1C(=O)/C(=C\c2ccccc2)S/C1=N/c1ccc(S(N)(=O)=O)cc1 |  |
| 7.51 | 7.43 | CN1C(=O)/C(=C\c2ccc(F)cc2)S/C1=N/c1ccc(S(N)(=O)=O)cc1 |  |

More lines, now with the values behind:

| SMILES | pKi (Carbonic anhydrase 2 [1]) | pKi (Carbonic anhydrase 12) | other results |
| --- | --- | --- | --- |
| COc1ccc(/C=C2/S/C(=N/c3ccc(S(N)(=O)=O)cc3)NC2=O)cc1 | 7.61 | 7.11 |  |
| COc1ccc(/C=C2/S/C(=N/c3ccc(S(N)(=O)=O)cc3)N(C)C2=O)cc1 | 7.26 | 7.18 |  |
| NS(=O)(=O)c1ccc(N2C(=O)CS/C2=N\C(=O)c2ccccc2)cc1 |  |  | pKi (Carbonic anhydrase 2 [2]): 9.39 |
| NS(=O)(=O)c1ccc(/N=C2\NC(=O)/C(=C3\C(=O)Nc4ccccc43)S2)cc1 | 7.64 | 7.47 | pKi (Carbonic anhydrase 9): 7.33; pKi (Carbonic anhydrase 1): 6.20 |
| CCN1C(=O)/C(=C\c2ccc(OC)cc2)S/C1=N/c1ccc(S(N)(=O)=O)cc1 |  | 7.25 |  |
| NS(=O)(=O)c1ccc(/N=C2\NC(=O)/C(=C\c3ccc(Cl)cc3)S2)cc1 | 7.02 |  |  |
| CCN1C(=O)/C(=C\c2ccccc2)S/C1=N/c1ccc(S(N)(=O)=O)cc1 | 7.11 | 7.02 |  |
| NS(=O)(=O)c1ccc(/N=C2\NC(=O)/C(=C\c3ccc(F)cc3)S2)cc1 | 8.15 |  |  |
| CCN1C(=O)/C(=C2\C(=O)Nc3ccccc32)S/C1=N/c1ccc(S(N)(=O)=O)cc1 | 6.98 | 8.04 |  |
| CCN1C(=O)/C(=C\c2ccc(F)cc2)S/C1=N/c1ccc(S(N)(=O)=O)cc1 | 7.07 | 7.96 | pIC50 (MCF7 [3]): 4.66; pKi (Carbonic anhydrase 9): 7.47; pKi (Carbonic anhydrase 1): 5.35; pIC50 (MCF7 [4]): 4.47 |
| NS(=O)(=O)c1ccc(/N=C2\NC(=O)/C(=C\c3ccccc3)S2)cc1 | 7.04 | 6.92 |  |
